# Values of other authors, collected in article PMC9406037, “Design, Synthesis and Activity of New N^1-Alkyl Tryptophan Functionalized Dendrimeric Peptides against Glioblastoma” (Biomolecules, 2022).
# How the values were obtained:
# [1] = alpha-tocopherol at ca 4.4 µM
# Source text: Taking into account structural differences between these two groups of dendrimers, the possible primary mechanism in the DPPH conditions involves hydrogen and electron transfer from the above electron-rich center and to less extent from numerous indole rings. For the same reasons, the highest reductive capabilities (FRAP) were expressed by compound 24. All compounds were very effective in s ...
# [2] = tested on: U87MG cells cultured in spheroids; settings: 20 µM alone or in combination with iododeoxyuridine (IUdR 1 µM) for 67 h; clonogenicity observed 10 day later
# Source text: Another important issue which has to be taken into consideration is the time of treatment with potential drugs and mode of action. […] […] However, combined treatment o ...
Molecule,"radical scavenging potency relative to Trolox, ABTS model [1]","radical scavenging potency relative to Trolox, DPPH model [1]",effect on cell viability or clonogenicity [2]
Cc1c(C)c2c(c(C)c1O)CC[C@@](C)(CCC[C@H](C)CCC[C@H](C)CCCC(C)C)O2 [alpha-tocopherol],~5.5,slightly lower,
"trans-3,4,5′-trihydroxystilbene [Resveratrol]",much more potent than Trolox,much more potent than Trolox,without any effect on cell viability or clonogenicity
